Assay results: patent US20260115185A1, “QUINOLINE DERIVATIVES WHICH ACT AS KAPPA-OPIOID RECEPTOR ANTAGONISTS” (The Scripps Research Institute, priority 2023, published 2026)

Key:
[1] = molecular target: T1, mu opioid receptor (MOR) (Homo sapiens, UniProt P35372); test: OPRMu1 Discover X β-arrestin Assay, antagonist mode (U2OS cells, DAMGO EC80 challenge); assay type: cell-based
T1 construct: host or cells: U2OS (Discover X OPRMu1-U2OS, PathHunter)
Description: OPRMu1 Discover X—β-arrestin Assay—Antagonist Mode. […] This assay evaluates the OPRMu1 activation in membrane recruitment of β-arrestin. In addition, the assay evaluates GPCR-β-arrestin proximity using low affinity fragment complementation of beta-galactosidase (beta-gal). The assay employs U20S cells, which express OPRMu1 fused to the complementary beta-gal fragment (enzyme acceptor). As designed, compounds that act as antagonists will prevent receptor activation resulting in reduced well luminescence. Compounds were tested in quadruplicate using a 10-point, 1:3 dilution series starting at a nominal concentration of 10 micromolar.
The Discover X OPRMu1-U20S cell line was cultured in 150 mm dishes at 37° C., 5% CO2 and 95% relative humidity (RH).
On Day 1 of the assay, 5000 cells in 20 μL of assay buffer (Discover X's Cell Plating Reagent 5) were seeded into each well of a 384 Corning 3570 standard white plate, and incubated 16-24 hours at 37° C., 5% CO2 and 95% RH.
On Day 2, 100 nL of test compound in DMSO were added to the appropriate wells and the plates were then incubated for 30 min at 37° C. 5% CO2 and 95% RH. Next, 2.2 μL of DAMGO OPRMu1 agonist (commercially available) or DMSO in assay media. (The EC80 Challenge consists of 1.8 μL of 3.7 μM DAMGO, 0.4 μL of Assay Buffer, with a final assay concentration of 303 nM). After incubation for 3 hours at 37° C. 5% CO2, and 95% RH, 10 μL of Path Hunter Detection Mix was added to each well, and the plate was then incubated at room temperature in the dark for 1 hour. Well luminescence was measured on Perkin Elmer's Envision.
(§1) The Percent Inhibition was calculated from the median ratio as follows:
• DMEM Medium, (Invitrogen 11965) • F12 Medium, (Invitrogen 11765) • Heat Inactivated Fetal Bovine Serum, (Invitrogen 10082147) • Non Essential Amino Acids 100× (Invitrogen 11140-050) • HEPES (pH 7.3) 1M, (Invitrogen 15630-080) • Sodium Pyruvate 100× (Invitrogen 11360-070) • Penicillin Streptomycin, (Invitrogen 15640) • Trypsin 0.25% EDTA (Invitrogen 25200056) • DPBS without Calcium/Magnesium (Invitrogen 14190-136) • DMSO Dry (Sigma D2650) • DAMGO OPRMu1 Agonist MW513.19 (Sigma E7384-5MG) • B-Funaltrexamine Hydrochloride OPRM1 Antagonist MW (SIGMA 0003-2MG) • PathHunter Cell Plating 5 Reagent (Discover X 93-0563R5A) • Corning 3750 Standard 384 well white plate with lid.
PathHunter Detection Mix (DiscoverX 93-0001): 1 part Galacton Star/5 parts Emerald II/19 parts PH Cell Assay Buffer.

[2] = molecular target: T2, kappa opioid receptor (KOR) (Homo sapiens, UniProt P41145); test: OPRKappa 1 Tango B-Arrestin Assay, antagonist mode (Tango OPRK1-bla U2OS cells, U50488 EC80 challenge); assay type: cell-based; details: for Selectivity (MOR/KOR): Kappa selectivity, MOR IC50 / KOR IC50; for IC50: antagonist mode, Tango OPRK1-bla U2OS cells, 6 nM U50488 challenge
T2 construct: host or cells: U2OS (Tango OPRK1-bla U2OS)
T2 sequence (P41145 whole entry): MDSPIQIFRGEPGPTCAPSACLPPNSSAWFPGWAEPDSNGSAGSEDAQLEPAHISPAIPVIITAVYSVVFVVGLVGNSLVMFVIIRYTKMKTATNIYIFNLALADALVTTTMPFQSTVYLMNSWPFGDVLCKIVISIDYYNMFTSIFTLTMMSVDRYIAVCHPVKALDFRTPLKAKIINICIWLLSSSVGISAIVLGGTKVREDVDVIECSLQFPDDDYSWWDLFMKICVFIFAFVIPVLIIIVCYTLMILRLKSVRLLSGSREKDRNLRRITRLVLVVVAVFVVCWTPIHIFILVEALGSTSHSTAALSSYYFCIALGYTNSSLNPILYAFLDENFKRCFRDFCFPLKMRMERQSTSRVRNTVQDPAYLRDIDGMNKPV
Description: OPRKappa 1 Tango B-Arrestin Assay Protocol-Antagonist Mode. […] The assay uses Tango OPRK1-bla U2OS cells which express OPRK1 linked to a GAL4-VP16 transcription factor via a TEV protease site. The cells also express a β-arrestin/TEV protease fusion protein and a β-lactamase (BLA) reporter gene under the control of a UAS response element. Stimulation of the OPRK1 receptor by agonist causes migration of the β-arrestin fusion protein to the GPCR, and through proteolysis liberates GAL4-VP16 from the receptor. The liberated VP16-GAL4 migrates to the nucleus, where it induces transcription of the BLA gene. BLA expression is monitored by measuring fluorescence resonance energy transfer (FRET) of a cleavable, fluorogenic, cell-permeable BLA substrate. As designed, test compounds that are OPRK1 antagonists inhibit agonist activation and migration of the fusion protein, thus preventing proteolysis of GAL4-VP16 and BLA transcription, leading to no increase in well FRET. Compounds were tested in quadruplicate using a 10-point, 1:3 dilution series starting at a nominal concentration of 10 micromolar.
The Tango OPRK1-U20S Dividing cell line was routinely cultured in 150 mm dishes at 37C, 5% CO2 and 95% relative humidity (RH).
On Day 1 of the assay, 16,000 cells in 10 μL of assay media (DMEM-Glutamax—with Sodium Pyruvate, 10% fetal bovine serum stripped with charcoal-dextran (CDS), 25 mM HEPES, 0.1 mM non-essential amino acids, antibiotic mix (penicillin streptomycin)) were seeded into each well of a 384 Greiner 788092 black low profile, clear bottom, low volume plate, and incubated 16-24 hours at 37° C., 5% CO2 and 95% (RH).
On Day 2, 50 nL of test compound in DMSO was added to the appropriate wells and plates were incubated for 30 min at 37° C. 5% CO2 and 95% (RH). Next was added 0.65 μL of commercially available U50488 OPRK1 agonist or DMSO in assay media: this EC80 Challenge consists of 0.6 μL of 111 nM U50488 to yield a final assay concentration of 6 nM). After incubation for 4 hours at 37° C., 5% CO2 and 95% (RH), 2.5 μL of LiveBLazer™FRET B/G (CCF4-AM) Mix (Soln.'s A,B,C,&D) was added to each well and incubated at room temperature in the dark for 2 hours. Well fluorescence was measured on Perkin Elmer's Envision using an Excitation filter 409 nm, Emission filters at 460 nm and […], bottom read.
as §1
• Tango™OPRK1-bla U20S Cells (Invitrogen K1576) • McCoy's 5A Medium, (Invitrogen 16600-082) • Dialyzed Fetal Bovine Serum, (Invitrogen 26400-036) • Non Essential Amino Acids 100× (Invitrogen part 11140-050) • HEPES (pH 7.3) 1M, (Invitrogen 15630-080) • Sodium Pyruvate 100× (Invitrogen 11360-070) • Penicillin Streptomycin, (Invitrogen 15640) • Trypsin 0.25% EDTA (Invitrogen 25200056) • DPBS without Calcium/Magnesium (Invitrogen 14190-136) • DMEM, High Glucose, GlutaMAX (Invitrogen 10569-010) • Fetal Bovine Serum, Charcoal Stripped (Invitrogen 12676-011) • DMSO Dry (Sigma D2650) • U50488 OPRK1 Agonist MW410.29 (Tocris 67198-19-0) • GNTI dihydrochloride OPRK1 Antagonist MW571.5 (Tocris 1282) • Nor-Binaltorphimine dihydrochloridc MW770.75 (Tocris 0347)
LiveBLAzere™-FRET/BG Loading Mix: (Invitrogen K1030 (5 mg)), composed of Solutions A, B, C, and D: • Solution A (6 μL): LiveBLAzer™-FRET/BG Substrate (CCF4-AM) • Solution B (60 μL) • Solution C (904 μL) • Solution C (must add 250 μl of 1N NaOH to 45 mL of Solution C prior to use) • Solution D (30 μL) [Probinicid] (Sigma P8161) make 200 mM stock in NaOH—H2O.

T1 sequence (P35372 whole entry): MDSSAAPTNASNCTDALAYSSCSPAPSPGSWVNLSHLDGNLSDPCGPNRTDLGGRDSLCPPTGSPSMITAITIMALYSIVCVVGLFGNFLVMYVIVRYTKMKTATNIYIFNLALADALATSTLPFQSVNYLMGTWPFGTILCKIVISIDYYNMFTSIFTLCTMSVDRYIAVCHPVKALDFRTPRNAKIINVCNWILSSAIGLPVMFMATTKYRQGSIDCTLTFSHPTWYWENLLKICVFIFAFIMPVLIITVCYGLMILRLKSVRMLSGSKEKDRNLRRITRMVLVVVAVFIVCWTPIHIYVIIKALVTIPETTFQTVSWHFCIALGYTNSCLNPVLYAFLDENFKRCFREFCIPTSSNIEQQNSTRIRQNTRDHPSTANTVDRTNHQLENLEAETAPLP

Row | Compound | IC50 [1] [nM] | Selectivity (MOR/KOR) [2] | IC50 [2] [nM]
1 | CCc1cc(F)c2nc(N3CCN(C(=O)[C@H](CO)N(C)C)C[C@H]3C)c(-c3cc(C)no3)c(C)c2c1 [Compound 168] | > 1000 | +++ (between 100- to 1000-fold selective) | 1 to 10
2 | CCc1cc(F)c2nc(N3CCN(C(=O)C(C)(C)N4CCCC4)C[C@H]3C)c(-c3ccn(C)n3)c(C)c2c1 [Compound 169] | > 1000 | ++ (between 10- and 100-fold selectivity) | 1 to 10
3 | CCc1cc(-c2ccnn2C)c2nc(N3CCC(N[C@H]4COC[C@H]4F)CC3)c(-c3ccn(C)n3)c(C)c2c1 [Compound 89] | > 1000 | ++ (between 10- and 100-fold selectivity) | 1 to 10
4 | CCc1cc(F)c2nc(N3CC[C@H]4[C@H](CCN4C[C@@H]4CCCOC4)C3)c(-c3ccn(C)n3)c(C)c2c1 [Compound 130] | > 1000 | ++ (between 10- and 100-fold selectivity) | 10 to 100
5 | CCc1cc(F)c2nc(N3CC[C@@H](N[C@@H]4CCCOC4)C[C@H]3C)c(-c3ccn(C)n3)c(C)c2c1 [Compound 119] | 100 to 1000 | ++++ (more than 1000-fold selectivity over MOR) | < 1
6 | CCc1cc(F)c2nc(N3CCC(N[C@H]4CCCC(F)(F)C4)CC3)c(-c3cc(C)n(C)n3)c(C)c2c1 [Compound 67] | 10 to 100 | ++ (between 10- and 100-fold selectivity) | 1 to 10
7 | CCc1cc(F)c2nc(N3CCN(C(=O)[C@H](Cc4ccccc4)N(C)C)C[C@H]3C)c(-c3nc(C)no3)c(C)c2c1 [Compound 52] | > 1000 | ++ (between 10- and 100-fold selectivity) | ≥ 100
8 | CCc1cc(F)c2nc(N3CC[C@@H](N[C@@H]4CCOC4)[C@H](C)C3)c(-c3ccn(C)n3)c(C)c2c1 [Compound 110] | > 1000 | +++ (between 100- to 1000-fold selective) | 1 to 10
9 | CCc1cc(C#N)c2nc(N3CCC(N[C@@H]4CCOC[C@@H]4F)CC3)c(-c3ccn(C)n3)c(C)c2c1 [Compound 78] | 10 to 100 | ++ (between 10- and 100-fold selectivity) | < 1
10 | CCc1cc(F)c2nc(N3CCC(N[C@@H]4COC[C@@H]4F)CC3)c(-c3ccn(C)n3)c(C)c2c1 [Compound 71, 1-(6-ethyl-8-fluoro-4-methyl-3-(1-methyl-1H-pyrazol-3-yl)quinolin-2-yl)-N-((3R,4R)-4-fluorotetrahydrofuran-3-yl)piperidin-4-amine] | > 1000 | +++ (between 100- to 1000-fold selective) | 1 to 10
11 | CCc1cc(-c2ccn(C)n2)c2nc(N3CCN(C(=O)C4CCOCC4)C[C@H]3C)c(-c3ccn(C)n3)c(C)c2c1 [Compound 101] | > 1000 | – | > 1000
12 | CCc1cc(F)c2nc(N3CCN(C(=O)[C@@H]4C[C@@H](O)CN4C)C[C@H]3C)c(-c3cc(C)no3)c(C)c2c1 [Compound 167] | > 1000 | +++ (between 100- to 1000-fold selective) | 1 to 10
13 | CCc1cc(F)c2nc(N3CCN(C(=O)CN4CC[C@@H](F)C4)C[C@H]3C)c(-c3nc(C)no3)c(C)c2c1 [Compound 149] | 100 to 1000 | +++ (between 100- to 1000-fold selective) | 1 to 10
14 | CCc1cc(-c2ccnn2C)c2nc(N3CCC(N4CCOC[C@@H]4C)CC3)c(-c3ccn(C)n3)c(C)c2c1 [Compound 92] | > 1000 | – | > 1000
15 | CCc1cc(F)c2nc(N3CCN(C[C@@H]4CCCO4)C[C@H]3C)c(-c3nc(C)no3)c(C)c2c1 [Compound 29] | > 1000 | +++ (between 100- to 1000-fold selective) | 1 to 10
16 | CCc1cc(F)c2nc(N3CCN(C(=O)[C@@H](C(C)C)N4CCCC4)C[C@H]3C)c(-c3nc(C)no3)c(C)c2c1 [Compound 148] | > 1000 | +++ (between 100- to 1000-fold selective) | 1 to 10
17 | CCc1cc(F)c2nc(N3CC[C@H](NC4CCOCC4)[C@H](F)C3)c(-c3cc(C(F)(F)F)n(C)n3)c(C)c2c1 (stereo in doubt) [Compound 83] | > 1000 | +++ (between 100- to 1000-fold selective) | ≥ 100
18 | CCc1cc(C#N)c2nc(N3CCC(N4CCOC[C@H]4C)CC3)c(-c3ccn(C)n3)c(C)c2c1 [Compound 82] | > 1000 | ++ (between 10- and 100-fold selectivity) | 10 to 100
19 | CCc1cc(F)c2nc(N3CCN(C[C@H]4CCCO4)C[C@H]3CC)c(-c3nc(C)no3)c(C)c2c1 [Compound 36] | > 1000 | ++ (between 10- and 100-fold selectivity) | 10 to 100
20 | CCc1cc(-c2ccn(C)n2)c2nc(N3CCC(NC4CC(F)(F)C4)CC3)c(-c3nc(C)no3)c(C)c2c1 [Compound 103] | > 1000 | +++ (between 100- to 1000-fold selective) | 1 to 10
21 | CCc1cc(F)c2nc(N3CC[C@@H](N[C@@H]4CCOC4)C[C@H]3C)c(-c3cc(C)no3)c(C)c2c1 [Compound 137] | 100 to 1000 | ++++ (more than 1000-fold selectivity over MOR) | < 1
